Data as given in patent publication US20160316791A1, “METHOD TO PROTECT LIPOPHILIC NUTRIENTS AGAINST RUMINAL DEGRADATION” (UNIVERSITEIT GENT, priority 2013, published 2016).

Test system: dairy cows
Test: In vivo protection and transfer of t10c12-CLA to milk, milk fat content
Conditions: 7 g per cow daily; FIG. 9
Protocol: Eight dairy cows in mid-lactation (100 to 220 days in milk, 562 to 712 kg live weight, minimum daily production of 20 to 25 kg milk) were used in a sequential set-up to test the in vivo protection of fatty acids and transfer to the milk. Two supplements were tested: First, a protected fatty acid emulsion, prepared according to Example 1, was administered (n=4). This product consisted of a protein extract from potato tuber peels, which was further used to emulsify a commercially available triacylglyceride mixture of cis-9, trans-11 and trans-10, cis-12 conjugated linoleic acid (t10c12-CLA) (TONALIN® TG80, BASF-AG, Ludwigshafen, Germany) and protected against rumen degradation through the creation of protein-phenol complexes by addition of 4-methylcatechol. The degree of rumen bypass of t10c12 CLA was assessed in vitro as described in Example 1 before the start of the in vivo trial. […]
The experimental period consisted of six weeks. […] Milk fat content was determined by Fourier Transform Infrared analysis (FTIR Delta Instruments, Drachten, The Netherlands) and fatty acids determined as described by Jorjong et al.^(19) Milk fat is presented as percentage of the total mass of milk produced per day and t10c12-CLA as g per 100 g of fatty acids detected.

CCCCC/C=C\C=C\CCCCCCCCC(=O)O [t10c12-CLA, trans-10, cis-12 conjugated linoleic acid] was tested, and the “transfer of dietary t10c12-CLA to the milk” value was “up to 5%”.
